System: S-SMase of HUVECs
Assay: Immunoblot of S-SMase from conditioned medium of HUVECs
Type: cell-based, human
Conditions: conditioned medium of IL-1β-treated HUVECs
Method: FIG. 26. Immunoblot analysis of L- and S-SMase from control and IL-1β-treated HUVECs. HUVECs were incubated for 18 h in DMEM, 0.2% BSA alone (Con) or containing human recombinant interleukin-1β (5 ng/ml) (IL1β). SMase was partially purified from the cell homogenates and conditioned media of these cells, and then aliquots derived from equivalent numbers of cells were subjected to immunoblot analysis. Specifically, conditioned medium from control and IL-1(-treated cells yielded 256.0 and 262.5 μg of concanavalin A eluate protein, of which 60.8 μg and 60.0 μg aliquots were loaded onto the SDS-PAGGE gel, respectively. Cell homogenates from control and IL-1β-treated cells yielded 168.1 and 160.6 μg of DEAE flow-through protein, of which 59.5 μg and 60.0 μg aliquots were loaded onto the SDS-PAGGE gel, respectively. No band at the molecular weight of L-SMase was visible in conditioned media (right-hand panels), even when overexposed.
Partial Purification of L- and S-SMase from HUVECs—A modification of previously published procedures (39) was used. Cells were scraped in ice-cold 40 mM Tris-HCl, 0.1 mM ZnCl2, 0.1% NP-40, pH 7.2 (Buffer A), disrupted by sonication on ice using three 5-second bursts (Branson 450 Sonifier) and centrifuged at 100,000×g for one hour. […]

## IL-1β: human recombinant interleukin-1β
  increase of higher-Mr S-SMase by densitometry of immunoblot: approximately two-fold
